{"source": "patent US20240269145A1", "about": "“USE OF INDOLE COMPOUND AS INHIBITORS OF FERROPTOSIS” (MITOIMMUNE THERAPEUTICS INC., priority 2023, published 2024)", "format_in_all_cases": "cell-based", "key": {"[1]": {"tested_on": "HT-22 cells", "test": "Cytosolic lipid ROS after erastin, Experimental Example 3-2", "details": "HT-22, erastin 1 μM, compound at 10 μM", "protocol": "[The source words this procedure for another cell line and says it was used here with some conditions changed.] (§1) Experimental Example 3-1: To confirm the protective effect against cytosolic lipid reactive oxygen species in lung epithelial cells, 2×10^5 MLE-12 cells were dispensed into each well of a 12-well plate and cultured for 18 to 24 hours. Each well was treated with Example Compound 1 and ferrostatin-1, which were diluted so that their final concentration became 0.01, 0.1, 1, and 10 μM, and culture was performed for 15 minutes. Afterwards, the cells were treated so that the final concentration of RSL3 became 1 μM, and cultured for 2 hours. To confirm the inhibitory effect against cytosolic lipid reactive oxygen species, BODIPY™ 581/591 C11 (lipid peroxidation sensor) [Invitrogen™; D3861] was used. According to the manufacturer's experimental method, BODIPY™ 581/591 C11 was diluted in the cell culture medium so that the final concentration became 5 μM, and the cells were treated therewith and allowed to react for 30 minutes to perform fluorescent staining. The MLE-12 cells fluorescently stained with BODIPY™ 581/591 C11 were detached from the 12-well plate using 0.25% Trypsin-EDTA and transferred to a microtube, and the fluorescence (excitation/absorption 500 to 650 nm/510 to 665 nm) was measured using BD FACSLyric™ to calculate the rate of change compared to the control group. […]"}, "[2]": {"tested_on": "PC-12 cells", "test": "Cytosolic lipid ROS after RSL3, Experimental Example 3-4", "details": "PC-12, RSL3 0.3 μM, 1 hr", "protocol": "[The source words this procedure for another cell line and says it was used here with some conditions changed.] as §1"}, "[3]": {"tested_on": "ARPE-19 cells", "test": "Cytosolic lipid ROS after RSL3, Experimental Example 3-5", "details": "ARPE-19, RSL3 0.3 μM, 2 hr", "protocol": "[The source words this procedure for another cell line and says it was used here with some conditions changed.] as §1"}, "[4]": {"tested_on": "H9C2 cells", "test": "Cytosolic iron ion accumulation (FerroOrange, images) after erastin", "details": "H9C2, erastin 1 μM, 7 hours; Example Compound 1 1 μM, DFO 10 or 100 μM", "protocol": "To confirm the inhibitory effect against cytosolic iron ion accumulation in adrenal medulla cells and cardiac cells, 3×10^5 PC-12 cells and H9C2 cells were each dispensed into a 35 mm confocal dish and cultured for 18 to 36 hours. Each well was treated with the Example Compound 1, which was diluted so that the final concentration became 1 μM, and with DFO, which was diluted so that the final concentration became 10 µM and 100 μM, and culture was performed for 20 to 30 minutes. Afterwards, the PC-12 cells and H9C2 cells were each treated with RSL3 and erastin so that their final concentration became 0.3 µM and 1 μM, respectively, and cultured for 1 hour and 7 hours. To confirm the inhibitory effect against cytosolic iron ion accumulation, FerroOrange [DOJINDO; F374] was used. According to the manufacturer's experimental method, FerroOrange was diluted in the cell culture medium so that the final concentration became 1 μM, and the cells were treated therewith. […] The cells fluorescently stained with FerroOrange were observed using a fluorescence microscope [Carl Zeiss; Axio Observer 7] to investigate the change in fluorescence (excitation/absorption 580 nm/543 nm) compared to the control group (RSL3 and erastin untreated group)."}, "[5]": {"tested_on": "H9C2 cells", "test": "Mitochondrial morphological changes (TEM) after erastin", "details": "H9C2, 5 μM erastin, 10 μM compound, 5 hours", "protocol": "To confirm whether Example Compound 1 may inhibit mitochondrial morphological changes due to ferroptosis, an experiment was performed using a transmission electron microscope (TEM). To collect cardiac cell samples, 1.3×10^6 H9C2 cells were cultured in a 150 mm cell culture dish for 4 days, and the culture medium was replaced with fresh culture medium on the second day. After treating the cells with Example Compound 1 at a final concentration of 10 µM for 30 minutes, an erastin-only treatment group was treated with a culture medium including 5 μM erastin; an erastin-Example Compound 1 treatment group was treated with a culture medium including 5 μM erastin and 10 μM Example Compound 1; and the V.C group was treated with a culture medium including the same amount of DMSO, and each group was treated for 5 hours. Afterwards, the supernatant was discarded, and the cells were washed with a 37° C. PBS solution three times. 10 mL of a 2.5% glutaraldehyde solution diluted in PBS was added and treated at room temperature for 1 hour. After washing with PBS solution three times, the remaining PBS solution was completely removed using an aspirator. 1 mL of PBS solution was added to recover the cells with a plastic scraper, and the cells were transferred to a 1.5 mL tube. Cells were allowed to settle using a centrifuge (3000 rpm) for 5 minutes. […]"}}, "data": [{"smiles": "O=S1(=O)CCN(Cc2cc(NC3CCOCC3)c3[nH]c(-c4ccccc4)cc3c2)CC1", "note": "[Example 1, 5-[(1,1-dioxido-4-thiomorpholinyl)methyl]-2-phenyl-N-(tetrahydro-2H-pyran-4-yl)-1H-indole-7-amine]", "values": [{"measurement": "cytosolic lipid reactive oxygen species increased by erastin", "setting": "[1]", "value": "inhibited"}, {"measurement": "cytosolic lipid reactive oxygen species increased by erastin", "setting": "[1]; 4 hours and 8 hours after treatment", "value": "effectively inhibited"}, {"measurement": "concentration at which cytosolic lipid reactive oxygen species were significantly decreased", "setting": "[2]", "value": 0.1, "unit": "µM"}, {"measurement": "concentration at which lipid reactive oxygen species are inhibited", "setting": "[3]", "value": 0.01, "unit": "µM"}, {"measurement": "cytosolic iron ion accumulation (images)", "setting": "[4]", "value": "decrease was confirmed"}, {"measurement": "mitochondrial morphological changes (size decrease, cristae loss, outer membrane collapse), TEM", "setting": "[5]", "value": "alleviated"}]}]}
